From patent US5218125A, “Antihypertensive compound and method of use thereas” (Merck & Co., Inc., priority 1992, dated 1993)

Molecular target: T1, Angiotensin II (A II) receptor (Oryctolagus cuniculus, UniProt P34976)
T1 construct: 125I-Sar1,Ile8-angiotensin II displacement
T1 sequence (P34976 1-359): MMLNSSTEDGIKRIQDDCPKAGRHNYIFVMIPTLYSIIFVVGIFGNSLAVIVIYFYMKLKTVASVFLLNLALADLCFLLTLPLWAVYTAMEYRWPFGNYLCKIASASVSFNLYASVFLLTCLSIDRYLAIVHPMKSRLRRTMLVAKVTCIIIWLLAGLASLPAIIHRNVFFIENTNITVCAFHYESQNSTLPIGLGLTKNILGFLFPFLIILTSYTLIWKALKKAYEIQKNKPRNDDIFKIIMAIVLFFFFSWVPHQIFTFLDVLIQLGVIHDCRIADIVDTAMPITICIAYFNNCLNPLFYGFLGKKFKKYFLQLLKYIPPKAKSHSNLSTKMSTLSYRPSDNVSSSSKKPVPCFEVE
Experiment: Receptor binding assay using rabbit aortae membrane preparation (125I-Sar1 Ile8-angiotensin II displacement, "IC50" assay)
Method: This assay is also referred to herein as the "IC50 " assay.
RECEPTOR BINDING ASSAY USING RABBIT AORTAE MEMBRANE PREPARATION
Three frozen rabbit aortae (obtained from Pel-Freeze Biologicals) were suspended in 5 mM Tris-0.25M Sucrose, pH 7.4 buffer (50 mL) homogenized, and then centrifuged. The mixture was filtered through a cheesecloth and the supernatant was centrifuged for 30 minutes at 20,000 rpm at 4° C. The pellet thus obtained was resuspended in 30 ml of 50 mM Tris-5 mM MgCl2 buffer containing 0.2% Bovine Serum Albumin and 0.2 mg/mL Bacitratin and the suspension was used for 100 assay tubes. Samples tested for screening were done in duplicate. To the membrane preparation (0.25 mL) there was added ^125 I-Sar^1 Ile^8 -angiotensin II [obtained from New England Nuclear] (10 uL; 20,000 cpm) with or without the test sample and the mixture was incubated at 37° C. for 90 minutes. The mixture was then diluted with ice-cold 50 mM Tris-0.9% NaCl, pH 7.4 (4 mL) and filtered through a glass fiber filter (GF/B Whatman 2.4" diameter). The filter was soaked in scintillation cocktail (10 mL) and counted for radioactivity using Packard 2660 Tricarb liquid scintillation counter. […]

SMILES: CCCC(O)c1nc(Cl)c(CO)n1Cc1ccc(-c2ccccc2-c2nn[nH]n2)cc1 (stereo not shown) [Compound (I)]
- A II antagonist activity by the IC50 assay: exhibits A II antagonist activity
